In US8481489B2, “GH secretagogues and uses thereof” (Theratechnologies Inc., priority 2003, dated 2013):
Several values for one entry are separate records, joined by “and”; a condition that tells them apart may be missing. Equal entries are not always repeated. Marks after values point to notes of the source that are not given here.

Tests used:
[1] = test system: type II diabetic patients; assay: Glucose control in type II diabetic patients; format: in vivo, human; settings: for glycosylated hemoglobin (HbA1c) levels: Week 12
Protocol: A double-blind placebo-controlled study was conducted in 53 type II diabetic patients (age=61±7 [SD]; 34% female) on stable antidiabetic medication (26% on insulin). Patients were randomized to parallel groups to receive daily subcutaneous administration of a placebo, 1 mg or 2 mg TH9507, respectively.
Clinically relevant changes in antidiabetic medications occurred with a similar incidence in the three treatment groups.

[2] = in vivo
[3] = test system: HIV-infected patients with abdominal fat accumulation; assay: Body composition by DEXA, HIV lipodystrophy study; settings: for Fat Mass, Δ / Lean Body Mass, Δ / Limb Fat, Δ / Trunk Fat, Δ: change from baseline, Week 12, mean (SD)
Protocol: Design: Randomized, placebo-controlled, multi-center, dose ranging (placebo, 1 mg or 2 mg SC QD), parallel group, 12-week study
Patients: 61 HIV-infected patients (BMI 28±3 [SD] kg/m^2, 28% diabetic or glucose intolerant) with increased waist circumference (102 cm±8 [SD]) and waist/hip (1.0±0.1 [SD])
At the baseline visit, anthropometric measurements were obtained. Total body lean and fat mass as well as regional fat mass in the trunk and extremities were assessed by DEXA. Abdominal subcutaneous and visceral fat area and the ratio of VAT to SAT were determined by cross-sectional CT at L4-L5.
Whole body and regional DEXA (dual energy X-ray absorptiometry) and cross-sectional abdominal CT scans were performed at the individual study sites based on previously established protocols and were standardized across sites. Digitized images were sent to a central reading center, St. Lukes Roosevelt Hospital, for analysis by independent experts without knowledge of treatment assignment. Each site was given a procedure manual to follow in obtaining the body composition data and was certified in the proper technique. For the CT scans, parameters were standardized as follows: Tube Voltage=120 kV, Tube Current=250 mA, Exposure=375 mAs, matrix 512×512. DFOV was set to include the entire slice into the field of view. For the DEXA scans total body scans were performed with analysis of lean body mass, total fat mass, and regional fat mass in the trunk and extremities as previously described (16).
Body composition endpoints included trunk fat and trunk to limb fat ratio by DEXA and VAT and VAT:SAT by CT scan. […] Baseline data are compared between the groups by F-test based on ANOVA for continuous variables and Chi-Square test for categorical variables. Change over time between groups is compared by ANOVA or the Chi-Square test. Where appropriate, data were rank transformed prior to analysis. Changes within each group are determined by t-test. The ITT (intent to treat) population is defined as all subjects who received at least one dose of the study treatment. Descriptive statistics and analyses for all efficacy and safety analyses are performed on the ITT population. End of study, 12 week, data are used to calculate changes in body composition. […] Imputation for missing data is not performed. For body composition, end of study data are used to calculate change. […] Results are mean (SD) unless otherwise noted. All statistical tests were performed with a two-sided Type I error level of 0.05.

GH secretion = assay: GH response and other pituitary hormones, 7-day study in healthy men; format: in vivo, human; settings: dose dependent between 0.5 and 1 mg, similar at 1 and 2 mg
Protocol: The study used a randomized, double-blind, placebo-controlled design and was conducted in healthy men, aged 50 to 60 years old. Subjects (8 per group) were injected S.C. once a day for 7 consecutive days with placebo, 0.5, 1 or 2 mg of TH9507. Circulating IGF-1 levels were measured on Days 1 to 7. […]

[4] = Adverse events, discontinuation and safety laboratory, HIV lipodystrophy study
[5] = Safety profile in the two vigilance studies; format: in vivo, human
IGF-1 = assay: Mean IGF-1 values, influenza vaccination study; format: in vivo, human; settings: 1 and 2 mg SC daily, whole 8-week treatment period
Protocol: (§1) Eighty seven (87) subjects aged 75 years in average were included in a double-bind, randomized, placebo-controlled study. TH9507 or a placebo was administered at a daily dose of 1 or 2 mg by subcutaneous injection for 8 weeks. Follow-up assessments were conducted for 12 weeks after the end of the treatment period. At week 4, in the middle of the treatment period, subjects received the commercial Canadian influenza vaccine (Vaccine Fluviral® S/F, Shire, Montreal, Canada) containing 15 μg each of A/New Caledonia/20/99, A/Panama/2007/99, B/Victoria/504/2000 antigens.
Values returned to baseline following cessation of treatment.

[6] = format: in vivo, human; settings: 1 or 2 mg SC daily, 8 weeks
Protocol: as §1

In vitro half-life = format: in vitro ADME
From the text: The safety profile of TH9507 is generally good.

[7] = test system: HIV-infected patients with abdominal fat accumulation; assay: Quality of life questionnaire (PLC), HIV lipodystrophy study; format: in vivo, human
Protocol: A health-related quality of life questionnaire (PLC, Quality of Life Profile for the Chronically Ill) was self-administered to 61 patients randomized to receive placebo or TH9507 at 1 or 2 mg s.c. daily. The PLC questionnaire included a general, non-specific part assessing 6 dimensions of global health as well as a disease specific part capturing impact of enlarged abdominal girth, abdominal bloating, tenseness and pain, as well as diarrhea, visible facial changes, visible changes in physical appearance, and the feeling of being recognized as an HIV positive person.
Study population included 54 men and 7 women. […] Slight changes were observed within the treated groups in the positive mood and social well-being scores but were not considered clinically significant.

[8] = test system: healthy subjects exhibiting age-related sleep impairment; assay: P300 event-related potential test, 7-day cross-over study; format: in vivo, human; settings: 1 mg daily for 7 days
Protocol: In this study, TH9507 was administered daily for 7 days in a cross-over design. […] Changes from Baseline to day 9 in the Pz amplitude of the Evoked Related Potential (P300) observed in the placebo and 1 mg group were as follows: Placebo, −15%; 1 mg, +55%, P=0.0114, as analyzed by an ANOVA model.

With `CC/C=C/CC(=O)N[C@@H](Cc1ccc(O)cc1)C(=O)N[C@@H](C)C(=O)N[C@@H](CC(=O)O)C(=O)N[C@@H](C)C(=O)N[C@H](C(=O)N[C@@H](Cc1ccccc1)C(=O)N[C@H](C(=O)N[C@@H](CC(N)=O)C(=O)N[C@@H](CO)C(=O)N[C@@H](Cc1ccc(O)cc1)C(=O)N[C@@H](CCCNC(=N)N)C(=O)N[C@@H](CCCCN)C(=O)N[C@H](C(=O)N[C@@H](CC(C)C)C(=O)NCC(=O)N[C@@H](CCC(N)=O)C(=O)N[C@@H](CC(C)C)C(=O)N[C@@H](CO)C(=O)N[C@@H](C)C(=O)N[C@@H](CCCNC(=N)N)C(=O)N[C@@H](CCCCN)C(=O)N[C@@H](CC(C)C)C(=O)N[C@@H](CC(C)C)C(=O)N[C@@H](CCC(N)=O)C(=O)N[C@@H](CC(=O)O)C(=O)N[C@H](C(=O)N[C@@H](CCSC)C(=O)N[C@@H](CO)C(=O)N[C@@H](CCCNC(=N)N)C(=O)N[C@@H](CCC(N)=O)C(=O)N[C@@H](CCC(N)=O)C(=O)NCC(=O)N[C@@H](CCC(=O)O)C(=O)N[C@@H](CO)C(=O)N[C@@H](CC(N)=O)C(=O)N[C@@H](CCC(N)=O)C(=O)N[C@@H](CCC(=O)O)C(=O)N[C@@H](CCCNC(=N)N)C(=O)NCC(=O)N[C@@H](C)C(=O)N[C@@H](CCCNC(=N)N)C(=O)N[C@@H](C)C(=O)N[C@@H](CCCNC(=N)N)C(=O)N[C@@H](CC(C)C)C(N)=O)[C@@H](C)CC)C(C)C)[C@@H](C)O)[C@@H](C)CC` [TH9507, (hexenoyl trans-3)hGRF(1-44)NH2] the “glycosylated hemoglobin (HbA1c) levels” value ([1]; 1 mg) was “a decrease”, the “glycosylated hemoglobin (HbA1c) levels” value ([1]; 2 mg) was “no change” and the “insulin relative response to an oral glucose tolerance test, between groups” value ([1]; placebo, 1 mg, 2 mg, treatment period) was “No statistically significant differences”. For the same compound, the Anti-TH9507 antibodies [2] was “not detected”, the “Blood pressure and heart rate” value [2] was “did not change” and the “Safety laboratory values, including hemoglobin, WBC, LFT's, creatinine” value [2] was “did not differ”. The Trunk fat change ([3]; 1 mg SC QD, 12 weeks) was −4.6%, the “Fat Mass, Δ” value ([3]; 1 mg SC QD) was −0.4 (1.8) kg and the “Lean Body Mass, Δ” value ([3]; 1 mg SC QD) was 0.7 (2.0) kg. For the same compound, the “Limb Fat, Δ” value ([3]; 1 mg SC QD) was 0.1 (0.5) kg, the “Trunk Fat, Δ” value ([3]; 1 mg SC QD) was −0.5 (1.4) kg and the Trunk fat change ([3]; 2 mg SC QD, 12 weeks) was −9.2%. The “Fat Mass, Δ” value ([3]; 2 mg SC QD) was −1.4 (2.0) kg and −1.4 (2.0)* kg, the “Lean Body Mass, Δ” value ([3]; 2 mg SC QD) was 1.7 (2.3) kg and 1.7 (2.3)* kg and the “Limb Fat, Δ” value ([3]; 2 mg SC QD) was −0.3 (0.8) kg. The “Trunk Fat, Δ” value ([3]; 2 mg SC QD) was −1.1 (1.3)* kg, the limb fat ([3]; 1 and 2 mg SC QD, 12 weeks) was “no significant change” and the GH response (GH secretion) was “increased rapidly”. The “Musculoskeletal AE's e.g. pain and arthralgias, subjects” value ([4]; 1 mg) was 26%, the “Musculoskeletal AE's e.g. pain and arthralgias, subjects” value ([4]; 2 mg) was 29% and the “reactions at the site of injection” value ([5]; 1 mg, insomnia study, vs placebo) was “higher incidence”. The safety profile ([5]; both vigilance studies) was “comparable to that of the placebo”, the “mean IGF-1 values vs baseline” value (IGF-1) was “dose-related increase” and the “incidence of adverse events between treatment groups” value [6] was “No major difference”. The “incidence of reactions at the site of injection” value [6] was “dose-related trend”, the half-life (In vitro half-life) was 3 to 8 h and the “abdominal pain (PLC)” value ([7]; 1 mg only, P<0.05 vs baseline, NS vs placebo) was “Improvement”. For the same compound, the “bloating score change (PLC)” value ([7]; 1 mg s.c. daily) was −0.50, the “enlarged abdominal girth score change (PLC)” value ([7]; 1 mg s.c. daily) was −0.93 and the “tenseness (PLC)” value ([7]; 1 mg, P=0.07 vs baseline, NS vs placebo) was “trend for improvement”. For the same compound, the “bloating score change (PLC)” value ([7]; 2 mg s.c. daily) was −0.69, the “enlarged abdominal girth score change (PLC)” value ([7]; 2 mg s.c. daily) was −1.19 and the “subscales of the main portion of the PLC, between groups” value ([7]; 1 or 2 mg s.c. daily) was “No significant difference”. The “Change from Baseline to day 9 in the Pz amplitude of the Evoked Related Potential (P300)” value [8] was “+55%”.
